Read-outs that look alike come from different tables or passages of the source.
How the values were obtained:
Acute toxicity test = format: in vivo; details: oral 100 - 1000 mg/kg, female Wistar rats, observed over 24 h
Method: Three female Wistar rats (4-week old) in each group were administered orally with 100 - 1000 mg/kg of a test compound in a volume of 10 ml/kg as suspended in an aqueous solution of 0.5% carboxymethylcellulose sodium or 5% gum arabic and were subsequently observed over 24 h. Compounds 1 - 6 were as identified above.

[1] = Uric acid excreting and diuretic actions in rats; format: in vivo, Wistar rats; details: for response vs control in vivo at 300 mg/kg / response vs control in vivo at 1000 mg/kg: Rattus norvegicus, female Wistar rats, urine collected up to 5 h, relative value with control = 100; for response vs control in vivo at 300 mg/kg: 300 mg/kg oral; for response vs control in vivo at 1000 mg/kg: 1000 mg/kg oral; for urine volume: result in words, summary of Table 1
Method: Three female Wistar rats (4-week old) in each group were administered orally with 300 or 1000 mg/kg of a test compound in a volume of 10 ml/kg as suspended in an aqueous solution of 0.5% carboxymethylcellulose sodium or 5% gum arabic; immediately thereafter, the animals were loaded orally with 25 ml/kg of physiological saline and the urine was collected up to 5 h after the administration of the test compound. The collected urine was immediately measured quantitatively and the urinary concentration of uric acid was measured by a urikase method in accordance with the procedure of Kabasakalian et al. [Kabasakalian, P. et al.: Clin Chem., 19, 522-524 (1973)] and the urinary excretion of uric acid was calculated. […]

[2] = Uric acid excreting and diuretic actions in rats; format: in vivo; details: Rattus norvegicus; 30 mg/kg oral, female Wistar rats, urine collected up to 5 h, relative value with control = 100; read-out: Urine Volume (%)
[3] = read-out: Urinary excretion of uric acid (%)

O=C1CN(S(=O)(=O)C2CCCCC2)C(=O)N1 [Compound 1, 1-(cyclohexylsulfonyl)hydantoin]
Acute toxicity (Minimal dose causing death: mg/kg) (Acute toxicity test): >1000 (no death case at 1000) mg/kg
response vs control in vivo at 300 mg/kg [1, 3]: 116%
response vs control in vivo at 300 mg/kg ([1]; read-out: Urine Volume (%)): 96%
response vs control in vivo at 1000 mg/kg [1, 3]: 155%
response vs control in vivo at 1000 mg/kg ([1]; read-out: Urine Volume (%)): 124%

O=C1CN(S(=O)(=O)C2CCCCCC2)C(=O)N1 [Compound 2, 1-(cycloheptylsulfonyl)hydantoin]
Acute toxicity (Minimal dose causing death: mg/kg) (Acute toxicity test): >1000 (no death case at 1000) mg/kg
response vs control in vivo at 300 mg/kg [1, 3]: 152%
response vs control in vivo at 300 mg/kg ([1]; read-out: Urine Volume (%)): 159%
response vs control in vivo at 1000 mg/kg [1, 3]: 256%
response vs control in vivo at 1000 mg/kg ([1]; read-out: Urine Volume (%)): 170%

O=C1CN(S(=O)(=O)C2CCCCCCC2)C(=O)N1 [Compound 3, 1-(cyclooctylsulfonyl)hydantoin]
Acute toxicity (Minimal dose causing death: mg/kg) (Acute toxicity test): >1000 (no death case at 1000) mg/kg
response vs control in vivo at 300 mg/kg [1, 3]: 103%
response vs control in vivo at 300 mg/kg ([1]; read-out: Urine Volume (%)): 109%
response vs control in vivo at 1000 mg/kg [1, 3]: 245%
response vs control in vivo at 1000 mg/kg ([1]; read-out: Urine Volume (%)): 95%

Cc1cc(S(=O)(=O)N2CC(=O)NC2=O)c(C)s1 [Compound 4, 1-(2,5-dimethylthien-3-ylsulfonyl)hydantoin]
Acute toxicity (Minimal dose causing death: mg/kg) (Acute toxicity test): >1000 (no death case at 1000) mg/kg
response vs control in vivo at 300 mg/kg [1, 3]: 104%
response vs control in vivo at 300 mg/kg ([1]; read-out: Urine Volume (%)): 111%
response vs control in vivo at 1000 mg/kg [1, 3]: 145%
response vs control in vivo at 1000 mg/kg ([1]; read-out: Urine Volume (%)): 207%

O=C1CN(S(=O)(=O)C2Cc3ccccc3C2)C(=O)N1 [Compound 5, 1-(indan-2-ylsulfonyl)hydantoin]
Acute toxicity (Minimal dose causing death: mg/kg) (Acute toxicity test): >1000 (no death case at 1000) mg/kg
response vs control in vivo at 300 mg/kg [1, 3]: 102%
response vs control in vivo at 300 mg/kg ([1]; read-out: Urine Volume (%)): 135%
response vs control in vivo at 1000 mg/kg [1, 3]: 144%
response vs control in vivo at 1000 mg/kg ([1]; read-out: Urine Volume (%)): 144%

O=C1CN(S(=O)(=O)c2cc(Cl)ccc2Cl)C(=O)N1 [Compound 6, 1-(2,5-dichlorophenylsulfonyl)hydantoin]
Acute toxicity (Minimal dose causing death: mg/kg) (Acute toxicity test): >1000 (no death case at 1000) mg/kg
response vs control in vivo at 300 mg/kg [1, 3]: 96%
response vs control in vivo at 300 mg/kg ([1]; read-out: Urine Volume (%)): 151%
response vs control in vivo at 1000 mg/kg [1, 3]: 151%
response vs control in vivo at 1000 mg/kg ([1]; read-out: Urine Volume (%)): 223%

NS(=O)(=O)c1cc(C(=O)O)c(NCc2ccco2)cc1Cl [Furosemide, furosemide, reference compound]
urine volume [1]: an increase in the urine volume was observed
response vs control in vivo at 30 mg/kg [2]: 215%

CCCN(CCC)S(=O)(=O)c1ccc(C(=O)O)cc1 [Probenecid, probenecid, reference compound]
response vs control in vivo at 300 mg/kg [1, 3]: 78%
response vs control in vivo at 300 mg/kg ([1]; read-out: Urine Volume (%)): 60%
response vs control in vivo at 1000 mg/kg [1, 3]: 167%
response vs control in vivo at 1000 mg/kg ([1]; read-out: Urine Volume (%)): 20%
urine volume [1]: significantly decreased the urine volume

From EP0788796A1, “URICOSURIC AGENT” (priority 1995, dated 1997)
